Data set [1] concerns the target T1, 11 β-HSD type 2 (Rattus norvegicus, UniProt P50233).
T1 construct: Both the kidneys and livers were homogenised on ice in PBS- sucrose buffer; tissue Harlan Olac, Bicester, Oxon, UK (rats); host or cells: rat kidney homogenate supernatant (Wistar rat)
T1 sequence (P50233 1-400): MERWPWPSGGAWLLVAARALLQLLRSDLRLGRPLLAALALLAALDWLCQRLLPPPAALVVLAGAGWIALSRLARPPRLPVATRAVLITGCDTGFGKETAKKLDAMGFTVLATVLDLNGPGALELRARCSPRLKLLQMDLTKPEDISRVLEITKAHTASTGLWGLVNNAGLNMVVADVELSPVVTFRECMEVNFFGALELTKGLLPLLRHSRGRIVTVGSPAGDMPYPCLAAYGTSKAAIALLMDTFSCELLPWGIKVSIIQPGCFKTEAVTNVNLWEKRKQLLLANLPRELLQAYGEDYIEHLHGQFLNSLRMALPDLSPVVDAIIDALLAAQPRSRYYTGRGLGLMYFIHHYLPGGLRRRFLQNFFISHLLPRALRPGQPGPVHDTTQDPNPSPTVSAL
Briefly: biochemical. The note with it: rat kidney cytosol 150 μL, 60 min, 37° C., cortisol (F) to cortisone (E), vs control without inhibitor, means n=2; for inhibition at 10 µM: read-out: % […]→E ± SD, inhibitor 10 μM; for % INHIBITION F→E ± SD: inhibitor 10 μM. The procedure:
Enzymes—Rat livers and rat kidneys were obtained from normal Wistar rats (Harlan Olac, Bicester, Oxon,UK). Both the kidneys and livers were homogenised on ice in PBS- sucrose buffer (1 g/10 ml) using an Ultra-Turrax. After the livers and kidneys were homogenised the homogenate was centrifuged for five minutes at 4000 rpm. The supernatant obtained was removed and stored in glass vials at −20° C. The amount of protein per μl of rat liver and kidney cytosol was determined using the Bradford method.
The same procedure was used for the 11 β-HSD type 2 assay, the conversion F to E, to determine the amount of rat kidney to be used and the incubation time.
In these assays the influence of different inhibitors on the 11 β-HSD activity both in reductive (type 1) and oxidative (type 2) directions were assessed. In the reductive direction E is the substrate and F the product and visa versa in the case of oxidation. The method described here is for the oxidative direction.
The substrate solution contained about 50,000 cpm/ml ^3H—F in PBS-sucrose and 0.5 pM F. 1 ml of the substrate solution was added to each tube, the inhibitors were also added, at a 10 μM concentration, to each tube except to the “control” and “blank” tubes. 150 μL was added to all tubes except to the blanks, this was done to correct for the amount of ^3H[…]. The tubes were incubated for 60 minutes in a mechanically shaken water bath at 37° C. […] After incubation 50 μL of recovery was added to correct for the losses made in the next steps, containing 5000 cpm/50 μL of ^14C-E and 50 μg/50 μL of unlabelled E (to visualise the spot on the TLC-plate). The aqueous mixture was then extracted with 4 ml of ether (2×30 sec cycle, vortex mix). After freezing the aqueous phase, the ether (upper) layer was decanted into smaller tubes and evaporated at 45° C. until completely dry. The residue was then re-dissolved in 6 drops of ether and transferred to a TLC-plate. The TLC-plate was developed in chloroform:methanol (9:1 v/v) solvent system, the TLC-plate ran for about 90 minutes until the solvent front had moved about 18 cm. The position of the product E was visualised under UV-light and cut out from the TLC-plate and put into scintillation vials. Radioactivity was eluted over 5 minutes with 0.5 ml methanol. 0.5 ml of PBS- sucrose and 10 ml of Ecoscint were then added and vortex mixed before counting in the scintillation counter. Before counting the samples, two total activity vials were prepared. These contained 0.5 ml of the substrate solution, 50 μL of the recovery, 0.5 ml of methanol and 10 ml of Ecoscint. These two total activity vials were needed to determine the amount of ^14C-E and ^3H—F added in the beginning to make the calculations.
To look at the percentage of inhibition four different concentrations, 1, 5, 10 and 20 μM, were used. The method for both the rat liver, type 1 the reductive, and rat kidney, type 2 the oxidative, stay the same throughout the entire experiment.
In this experiment the influence of different inhibitors on the conversion E to F and F to E was determined. The reason why inhibition in both directions was examined was to make a comparison between the inhibitors and which type of 11 β-HSD they inhibit more. Thirty-two compounds were screened for their ability to inhibit 11 β-HSD type 1 (E to F) and type 2 (F to E). […] The percent of inhibition was calculated as the percentage of decrease in radio labelled ^3H-E and ^3H—F of product formed, compared with the control activity (the tubes without an inhibitor in it). All the results calculated are means, n=2.

Data set [2] has as its target T2, 11 β-HSD type 1 (Rattus norvegicus, UniProt P16232).
T2 construct: Both the kidneys and livers were homogenised on ice in PBS- sucrose buffer; tissue Harlan Olac, Bicester, Oxon, UK (rats); host or cells: rat liver homogenate supernatant (Wistar rat)
Briefly: biochemical. It counts as biochemical. The conditions noted are these: rat liver cytosol 25 μL, 90 min, 37° C., cortisone (E) to cortisol (F), vs control without inhibitor, means n=2; for inhibition at 10 µM: read-out: % […]→F ± SD, inhibitor 10 μM; for % INHIBITION E→F ± SD: inhibitor 10 μM.

The mark [3] stands for this setting: read-out: % INHIBITION F→E ± SD.
Setting [4] is: read-out: % INHIBITION E→F ± SD.

Values joined by “and” are separate entries in the source; they are usually repeats but may differ in a detail not shown here. Identical values can stand only once. Counter-ions that a name gives are not always drawn. Like-named read-outs stand apart in the source and are kept apart here.

T2 sequence (P16232 whole entry): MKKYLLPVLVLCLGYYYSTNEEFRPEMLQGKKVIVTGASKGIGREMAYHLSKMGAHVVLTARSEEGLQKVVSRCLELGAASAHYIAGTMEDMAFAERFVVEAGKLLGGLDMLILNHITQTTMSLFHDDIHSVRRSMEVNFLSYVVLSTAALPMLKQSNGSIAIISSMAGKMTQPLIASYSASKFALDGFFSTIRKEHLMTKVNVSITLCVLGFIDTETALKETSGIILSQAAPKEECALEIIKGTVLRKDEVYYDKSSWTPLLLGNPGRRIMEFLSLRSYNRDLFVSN

For the compound `CC1(C)C2CC[C@]3(C)C(CC=C4[C@@H]5C[C@@](C)(C(=O)OC6CCCCC6)CC[C@]5(C)CC[C@]43C)[C@@]2(C)CC[C@@H]1O` (some centres unmarked), the melting point lay in the range of 163 to 166 °C. Same read-out and setting: then `COC(=O)[C@@]1(C)CC[C@]2(C)CC[C@]3(C)C(=CCC4[C@@]5(C)CC[C@H](O)C(C)(C)C5CC[C@]43C)[C@@H]2C1` (some centres unmarked) [DGS01092 B], with 135 to 137 °C; and `CC1(C)C2CC[C@]3(C)C(C(=O)C=C4[C@@H]5C[C@@](C)(C(=O)OCCc6ccccc6)CC[C@]5(C)CC[C@]43C)[C@@]2(C)CC[C@@H]1O` (some centres unmarked), with 171 to 172 °C. Same read-out and setting: then `CC(C)(C)OC(=O)[C@@]1(C)CC[C@]2(C)CC[C@]3(C)C(=CC(=O)C4[C@@]5(C)CC[C@H](O)C(C)(C)C5CC[C@]43C)[C@@H]2C1` (some centres unmarked), with 171 to 174 °C. With `CC1(C)C2CC[C@]3(C)C(CC=C4[C@@H]5C[C@@](C)(C(=O)OCCc6ccccc6)CC[C@]5(C)CC[C@]43C)[C@@]2(C)CC[C@@H]1O` (some centres unmarked), the melting point lay within 153 to 155 °C. Still for that read-out and setting: in the case of `COC(=O)[C@@]1(C)CC[C@]2(C)CC[C@]3(C)C(=CCC4[C@@]5(C)CC[C@H](O)C(C)(C)C5CC[C@]43C)[C@@H]2C1` (some centres unmarked) [DG 383 B] it was 291 to 293 °C.

As for `C[C@]12CCC(=O)C=C1CC[C@@H]1[C@@H]2[C@@H](O)C[C@@]2(C)[C@H]1CC[C@]2(O)C(=O)CO` [Cortisol, reference compound], the values for the inhibition at 10 µM in data set [1] (setting [3]) and in data set [2] (setting [4]) were 54.7 ± 4.24% and 49.6 ± 5.87%, respectively. In the case of “Deoxycorticosterone [reference compound]”, the “% INHIBITION F→E ± SD” value in data set [1] was determined as 53.3 ± 1.273%. In addition, the “% INHIBITION E→F ± SD” value in data set [2] stood at 70.2 ± 1.655%. For the compound `C[C@]12CCC(=O)C=C1CCC1C2C(O)C[C@]2(C)C(=O)CCC12` (stereo partly drawn) [11β-OH-Androstenedione, reference compound], the inhibition at 10 µM in data set [1] (setting [3]) is 40.9 ± 4.67%; in data set [2] (setting [4]), 55.2 ± 0.26%.

`CC1(C)C2CC[C@]3(C)C([C@H](O)C=C4[C@@H]5C[C@@](C)(CO)CC[C@]5(C)CC[C@]43C)[C@@]2(C)CC[C@@H]1O` (some centres unmarked) [STX 351]: the inhibition at 10 µM in data set [1] (setting [3]) stood at 94.41 ± 0.63%; in data set [2] (setting [4]), 70 ± 6.39%. Compound `CC1(C)C2CC[C@]3(C)C(C(=O)C=C4[C@@H]5C[C@@](C)(C(=O)OCCCc6ccccc6)CC[C@]5(C)CC[C@]43C)[C@@]2(C)CC[C@H]1O` (some centres unmarked) gave a melting point of 114 to 116 °C. For the compound `CC1(C(=O)O)CCC2(C)CCC3C(=CC(=O)C4C3(C)CCC3C(C)(C)C(OC(=O)CCC(=O)O)CCC34C)C2C1` (centres unmarked) [Carbenoxalone, Carbenoxalone (disodium salt), reference compound], the values for the inhibition at 10 µM in data set [1] (setting [3]) and in data set [2] (setting [4]) were 100% and 52.2 ± 4.8%, respectively. In the case of `CC(=O)[C@H]1CC[C@H]2[C@@H]3CC=C4C[C@@H](O)CC[C@]4(C)[C@H]3CC[C@]12C` [Pregnenolone, reference compound], the inhibition at 10 µM was found to be 42.1 ± 0.777% in data set [1] and 49.8 ± 9.36% in data set [2]. `CC(C)OC(=O)[C@@]1(C)CC[C@]2(C)CC[C@]3(C)C(=CCC4[C@@]5(C)CC[C@H](O)C(C)(C)C5CC[C@]43C)[C@@H]2C1` (some centres unmarked) gave a melting point of 201 to 203 °C. The same measure, in the same setting: in the case of `COC(=O)[C@@]1(C)CC[C@]2(C)CC[C@]3(C)C(=CCC4[C@@]5(C)CCC(=O)C(C)(C)C5CC[C@]43C)[C@@H]2C1` (some centres unmarked) it was 234 to 236 °C. With `CC1(C)C2CC[C@]3(C)[C@H](C(=O)C=C4[C@@H]5C[C@@](C)(C(=O)NC6CC6)CC[C@]5(C)CC[C@]43C)[C@@]2(C)CC[C@@H]1O` (stereo partly drawn) [STX 370, 18β-Glycyrrhetinic Acid Cyclopropylamide], the inhibition at 10 µM in data set [1] (setting [3]) turned out to be 102.5 ± 0.22%; in data set [2] (setting [4]), 89.6 ± 1.18%. `CC(C)(C)OC(=O)[C@@]1(C)CC[C@]2(C)CC[C@]3(C)C(=CC(=O)C4[C@@]5(C)CC[C@@H](O)C(C)(C)C5CC[C@]43C)[C@@H]2C1` (some centres unmarked) yielded a melting point of 95 to 97 °C. As to `CCO[C@H]1CC[C@@]2(C)C(CC[C@]3(C)C2C(=O)C=C2[C@@H]4C[C@@](C)(C(=O)O)CC[C@]4(C)CC[C@]23C)C1(C)C` (stereo partly drawn) [STX196a, 3β-Ethoxy-11-oxo-18β-glycerrhetinic acid], the figures for the inhibition at 10 µM in data set [1] (setting [3]) and in data set [2] (setting [4]) were 93.9 ± 1.77% and 55 ± 0.022%, respectively. As for `CC(C)OC(=O)[C@@]1(C)CC[C@]2(C)CC[C@]3(C)C(=CC(=O)C4[C@@]5(C)CC[C@H](O)C(C)(C)C5CC[C@]43C)[C@@H]2C1` (some centres unmarked), the melting point was 271 to 273 °C (dec.).

For `COC(=O)[C@@]1(C)CC[C@]2(C)CC[C@]3(C)C(=CC(=O)C4[C@@]5(C)CC[C@H](O)C(C)(C)C5CC[C@]43C)[C@@H]2C1` (stereo partly drawn) [STX195, 3β-Hydroxy-11-oxo-18β-glycyrrhetinic acid methyl ester], the inhibition at 10 µM in data set [1] (setting [3]) turned out to be 105 ± 1.55%; in data set [2] (setting [4]), 85.4 ± 2.29%. `CC1(C)C2CC[C@]3(C)C(CC=C4[C@@H]5C[C@@](C)(C(=O)OCc6ccccc6)CC[C@]5(C)CC[C@]43C)[C@@]2(C)CC[C@H]1O` (some centres unmarked) had a melting point of 151 to 152 °C. For `CC1(C)CC[C@]2(C(=O)O)CC[C@]3(C)C(=CC[C@@H]4[C@@]5(C)CCC(=O)C(C)(C)[C@@H]5CC[C@]43C)[C@@H]2C1` [BLE99006, 3-Oxo-oleanoic acid], the “% INHIBITION F→E ± SD” value in data set [1] stood at 45.6 ± 11.030%. For the same compound, in data set [2] (10 µM), the “% INHIBITION E→F ± SD” value was 22% and 22.2 ± 0.354%. With `COC(=O)[C@@]1(C)CC[C@]2(C)CC[C@]3(C)C(=CC(=O)C4[C@@]5(C)CCC(=O)C(C)(C)C5CC[C@]43C)[C@@H]2C1` (stereo partly drawn) [STX194, Methyl 3-oxo-18β-glycerrhetate], the values for the inhibition at 10 µM in data set [1] (setting [3]) and in data set [2] (setting [4]) were 75 ± 2.93% and 65.8 ± 5.69%, respectively.

With `CO[C@H]1CC[C@@]2(C)C(CC[C@]3(C)C2C(=O)C=C2[C@@H]4C[C@@](C)(C(=O)O)CC[C@]4(C)CC[C@]23C)C1(C)C` (stereo partly drawn) [STX195a, 3β-Methoxy-11-oxo-18β-glycerrhetinic acid], the inhibition at 10 µM was 90.3 ± 1.98% in data set [1] (setting [3]) and 53 ± 1.02% in data set [2] (setting [4]). For `CC1(C)C(O)CC[C@@]2(C)C1CC[C@]1(C)C2CC=C2[C@@H]3C[C@@](C)(C(=O)OCc4ccccc4)CC[C@]3(C)CC[C@]21C` (some centres unmarked) [STX 296], in that order: 33.8 ± 15.8% and 37.7 ± 8.85%.

The term melting point denotes the temperature, or range, at which the solid turns liquid.

The values above are taken from patent US20040147494A1, “Use” (priority 2001, published 2004).
